# In patent publication US7807679B2, “Piperazine derivatives and their use in controlling pests” (Syngenta Crop Protection, Inc., priority 2004, dated 2010):
row,Structure (SMILES),melting point [°C]
1,"O=C(Nc1cnc(Cl)nc1N1CCN(C/C=C/c2ccc(OC(F)(F)F)cc2)CC1)c1ccnc(Cl)c1 [Example 7, 2-chloro-N-(2-chloro-4-{4-[(E)-3-(4-trifluoromethoxy-phenyl)-allyl]-piperazin-1-yl}-pyrimidin-5-yl)-isonicotinamide]",210 to 211
2,"COCCCNC(=O)Nc1ccc(F)cc1N1CCN(C/C=C/c2ccc(Cl)cc2)CC1 [Example 4, 1-(2-{4-[(E)-3-(4-chloro-phenyl)-allyl]-piperazin-1-yl}-4-fluoro-phenyl)-3-(3-methoxy-propyl)-urea]",86 to 90
3,"O=C1N(Cc2cnc(Cl)s2)CCN1c1ccc(F)cc1N1CCN(C/C=C/c2ccc(Cl)cc2)CC1 [Example 5, 1-(2-{4-[(E)-3-(4-Chloro-phenyl)-allyl]-piperazin-1-yl}-4-fluoro-phenyl)-3-(2-chloro-thiazol-5-ylmethyl)-imidazolidin-2-one]",72 to 77
4,"CN1CCN(c2cc(Cl)ccc2NC(=O)c2ccnc(Cl)c2)CC1 [Example 3, 2-Chloro-N-[4-chloro-2-(4-methyl-piperazin-1-yl)-phenyl]-isonicotinamide]",118 to 120
5,"Cc1nn(C)c(N2CCN(C/C=C/c3ccc(Cl)cc3)CC2)c1NC(=O)c1ccnc(Cl)c1 [Example 8, 2-Chloro-N-(5-{4-[(E)-3-(4-chloro-phenyl)-allyl]-piperazin-1-yl}-1,3-dimethyl-1H-pyrazol-4-yl)-isonicotinamide]",85 to 88
6,"O=C(Nc1c(Cl)cc(Cl)cc1N1CCN(C/C=C/c2ccc(Cl)cc2)CC1)c1ccnc(Cl)c1 [Example 10, 2-chloro-N-(2-{4-[(E)-3-(4-chloro-phenyl)-allyl]-piperazin-1-yl}-4,6-dichloro-phenyl)-isonicotinamide]",79 to 80
